The COVID Moonshot data (paper PMC7615835)
Where “and” joins values, the source holds several entries; their conditions need not be identical. Equal entries are not always repeated.

Legend:
[1] = target: SARS-CoV-2 Main Protease (SARS-CoV-2) (UniProt P0DTD1)
[2] = in vivo, iv, 0.5 mg/kg
[3] = not given; remark: listed apart in the source

## O=C(Cc1cc(F)cc(Cl)c1)Nc1cncc2ccccc12
a549
  CC50: > 9990 nM
[1]
  IC50: 368 nM and 398 nM

## COC1(C(=O)Nc2cncc3ccc(S(C)(=O)=O)cc23)CCOc2ccc(Cl)cc21 (configuration not stated)
[2]; mouse
  AUC(0-inf): 51.9 ng·h/mL and 61.9 ng·h/mL
  AUC(0-t): 50.3 ng·h/mL
  C0: 142 ng/mL and 157 ng/mL
  MRT inf: 31.3 min and 26.9 min
  MRT last: 27.4 min and 24.5 min
  Vd: 5.03 L/kg and 3.65 L/kg
  clearance: 161 mL/min/kg and 135 mL/min/kg
  half-life: 25.3 min and 22.1 min
[1]
  IC50: 426 nM and 423 nM

## CS(=O)(=O)N1Cc2ccc(Cl)cc2[C@H](C(=O)Nc2cncc3ccccc23)C1 (stereo in doubt)
[3]
  logD: 2.2

## NC(=O)c1cc2c(NC(=O)C3CCOc4ccc(Cl)cc43)cncc2s1 (configuration not stated)
[2]; rat
  AUC(0-inf): 488 ng·h/mL and 612 ng·h/mL
  AUC(0-t): 485 ng·h/mL and 604 ng·h/mL
  C0: 706 ng/mL and 898 ng/mL
  MRT inf: 77.4 min and 69 min
  MRT last: 65.4 min and 70.2 min
  Vd: 1.18 L/kg and 1.06 L/kg
  clearance: 17.1 mL/min/kg and 13.7 mL/min/kg
  half-life: 75 min and 84 min
[1]
  IC50: 761 nM

## O=C(Nc1cncc2ccccc12)C(O)c1ccc(Cl)c(Cl)c1 (configuration not stated)
a549
  CC50: > 9990 nM
[1]
  IC50: 2010 nM

## O=C(Nc1cncc2ccccc12)C1CCN(Cc2ccn[nH]2)c2ccc(Cl)cc21 (configuration not stated)
a549
  CC50: > 9990 nM
[1]
  IC50: 803 nM

## CS(=O)(=O)N1Cc2ccc(Cl)cc2C(C(=O)Nc2cncc3c2CCCC3)C1 (configuration not stated)
[2]; rat
  AUC(0-inf): 196 ng·h/mL and 264 ng·h/mL
  AUC(0-t): 195 ng·h/mL and 262 ng·h/mL
  C0: 541 ng/mL and 625 ng/mL
  MRT inf: 35.6 min and 31 min
  MRT last: 29.8 min and 34 min
  Vd: 1.32 L/kg and 1.14 L/kg
  clearance: 42.5 mL/min/kg and 33 mL/min/kg
  half-life: 30.6 min and 25.6 min
[1]
  IC50: 642 nM

## O=C(Nc1cncc2cc(Cl)ccc12)C1CCS(=O)(=O)c2ccc(Cl)cc21 (configuration not stated)
[2]; rat
  AUC(0-inf): 2140 ng·h/mL and 2940 ng·h/mL
  AUC(0-t): 1940 ng·h/mL and 2700 ng·h/mL
  C0: 769 ng/mL and 1200 ng/mL
  MRT inf: 193 min and 199 min
  MRT last: 148 min and 151 min
  Vd: 0.774 L/kg and 0.556 L/kg
  clearance: 3.9 mL/min/kg and 2.9 mL/min/kg
  half-life: 141 min and 133 min
[1]
  IC50: 838 nM

## O=C(Cn1nc2n(c(=O)c1=O)CCC2)NC(C(=O)Nc1cncc2ccccc12)c1cccc(Cl)c1 (configuration not stated)
vero
  CC50: > 9990 nM

## CN(C)C(=O)C[C@]1(C(=O)Nc2cncc3ccccc23)CCOc2ccc(Cl)cc21 (stereo in doubt)
vero
  CC50: > 9990 nM
[1]
  IC50: 1300 nM

## CS(=O)(=O)c1ccc2cncc(NC(=O)C3CCOc4cc(F)c(Cl)cc43)c2c1 (configuration not stated)
a549
  CC50: > 9990 nM
[1]
  IC50: 1890 nM and 1270 nM

## O=C(Cc1cccc(Cl)c1)Nc1cncc2cc(F)ccc12
a549
  CC50: > 9990 nM
[1]
  IC50: 1470 nM

## N#Cc1ccc2cncc(NC(=O)C3CCOc4ccc(Cl)cc43)c2c1 (configuration not stated)
a549
  CC50: > 10000 nM

## N#CCC(=O)N1Cc2ccc(Cl)cc2C(C(=O)Nc2cncc3ccccc23)C1 (configuration not stated)
[2]; rat
  AUC(0-inf): 128 ng·h/mL and 148 ng·h/mL
  AUC(0-t): 124 ng·h/mL and 144 ng·h/mL
  C0: 404 ng/mL and 370 ng/mL
  MRT inf: 28.7 min and 29.3 min
  MRT last: 24.5 min and 25.6 min
  Vd: 1.61 L/kg and 1.36 L/kg
  clearance: 54.8 mL/min/kg and 47.4 mL/min/kg
  half-life: 25.4 min and 22 min
[1]
  IC50: 204 nM

## O=C(Nc1cncc2ccccc12)C1CN(S(=O)(=O)C2CC2)Cc2ccc(Cl)cc21 (configuration not stated)
[2]; mouse
  AUC(0-inf): 112 ng·h/mL and 120 ng·h/mL
  AUC(0-t): 109 ng·h/mL and 116 ng·h/mL
  C0: 314 ng/mL and 396 ng/mL
  MRT inf: 17.5 min and 18 min
  MRT last: 16 min and 15.5 min
  Vd: 1.3 L/kg and 1.25 L/kg
  clearance: 74.5 mL/min/kg and 69.4 mL/min/kg
  half-life: 10.7 min and 12.7 min
[1]
  IC50: 310 nM

## O=C1NCC(C(=O)Nc2cncc3ccccc23)c2cc(Cl)ccc21 (configuration not stated)
[2]; rat
  AUC(0-inf): 377 ng·h/mL and 428 ng·h/mL and 182 ng·h/mL
  AUC(0-t): 374 ng·h/mL and 422 ng·h/mL and 180 ng·h/mL
  C0: 443 ng/mL and 648 ng/mL and 439 ng/mL
  MRT inf: 57.1 min and 75 min and 37.4 min
  MRT last: 71.4 min and 53 min and 35 min
  Vd: 1.66 L/kg and 1.12 L/kg and 1.75 L/kg
  clearance: 22.1 mL/min/kg and 19.5 mL/min/kg and 46.8 mL/min/kg
  half-life: 64.8 min and 52 min and 34.7 min
[1]
  IC50: 208 nM

## O=C(Nc1cnccc1C1CC1)C1CCNc2cc(Cl)c(Cl)cc21 (configuration not stated)
[2]; rat
  AUC(0-inf): 144 ng·h/mL and 96.1 ng·h/mL
  AUC(0-t): 142 ng·h/mL and 94.2 ng·h/mL
  C0: 341 ng/mL and 180 ng/mL
  MRT inf: 46.2 min and 45.9 min
  MRT last: 40.6 min and 41 min
  Vd: 2.65 L/kg and 4.01 L/kg
  clearance: 57.7 mL/min/kg and 86.8 mL/min/kg
  half-life: 49.4 min and 48.2 min
a549
  CC50: > 9990 nM
mda-md-435
  CC50: > 9990 nM

## COC(=O)N1Cc2ccc(Cl)cc2C(C(=O)Nc2cncc3ccccc23)C1 (configuration not stated)
[2]; rat
  AUC(0-inf): 152 ng·h/mL and 94.2 ng·h/mL
  AUC(0-t): 150 ng·h/mL and 93.6 ng·h/mL
  C0: 411 ng/mL and 345 ng/mL
  MRT inf: 20.4 min and 24.1 min
  MRT last: 22.5 min and 19.4 min
  Vd: 1.32 L/kg and 1.82 L/kg
  clearance: 54.9 mL/min/kg and 88.6 mL/min/kg
  half-life: 20 min and 18.2 min
[1]
  IC50: 224 nM

## O=C(Nc1cncc2c1CCCC2)C1CCNc2cc(Cl)c(Cl)cc21 (configuration not stated)
[3]
  logD: 3.9

## Cc1nnc(CN2Cc3ccc(Cl)cc3C(C(=O)Nc3cncc4ccccc34)C2)[nH]1 (configuration not stated)
[2]; rat
  AUC(0-inf): 143 ng·h/mL and 182 ng·h/mL
  AUC(0-t): 142 ng·h/mL and 178 ng·h/mL
  C0: 621 ng/mL and 588 ng/mL
  MRT inf: 28.7 min and 20.8 min
  MRT last: 19.7 min and 25.8 min
  Vd: 1.21 L/kg and 1.32 L/kg
  clearance: 58.3 mL/min/kg and 46.8 mL/min/kg
  half-life: 18.7 min and 22.1 min
[1]
  IC50: 750 nM

## O=C(Nc1cncc2ccccc12)C1CN(S(=O)(=O)CCO)Cc2ccc(Cl)cc21 (configuration not stated)
[2]; rat
  AUC(0-inf): 241 ng·h/mL and 283 ng·h/mL
  AUC(0-t): 236 ng·h/mL and 280 ng·h/mL
  C0: 441 ng/mL and 590 ng/mL
  MRT inf: 56.2 min and 49.7 min
  MRT last: 44.2 min and 52.6 min
  Vd: 1.72 L/kg and 1.66 L/kg
  clearance: 34.6 mL/min/kg and 29.6 mL/min/kg
  half-life: 47.1 min and 72.6 min
[1]
  IC50: 232 nM

## O=C(Cc1cccc(Cl)c1)Nc1cnccc1C1CC1
[2]; rat
  AUC(0-inf): 77 ng·h/mL and 54.5 ng·h/mL
  AUC(0-t): 74.1 ng·h/mL and 53.2 ng·h/mL
  C0: 260 ng/mL and 176 ng/mL
  MRT inf: 20.7 min and 17.8 min
  MRT last: 15.4 min and 18.5 min
  Vd: 1.92 L/kg and 3.14 L/kg
  clearance: 108 mL/min/kg and 153 mL/min/kg
  half-life: 12.5 min and 15.8 min
[1]
  IC50: 7170 nM

## CNS(=O)(=O)N1Cc2ccc(Cl)cc2C(C(=O)Nc2cncc3ccccc23)C1 (configuration not stated)
[2]; rat
  AUC(0-inf): 185 ng·h/mL and 255 ng·h/mL and 157 ng·h/mL
  AUC(0-t): 183 ng·h/mL and 254 ng·h/mL and 155 ng·h/mL
  C0: 507 ng/mL and 850 ng/mL and 519 ng/mL
  MRT inf: 31.6 min and 38.9 min and 23.9 min
  MRT last: 36.1 min and 30.6 min and 22.1 min
  Vd: 1.75 L/kg and 1.07 L/kg and 1.5 L/kg
  clearance: 45.1 mL/min/kg and 33.3 mL/min/kg and 62.7 mL/min/kg
  half-life: 41 min and 32.2 min and 20 min
[1]
  IC50: 149 nM

## O=C(Nc1cncc2cc(F)ccc12)C1CCS(=O)(=O)c2ccc(Cl)cc21 (configuration not stated)
[2]; rat
  AUC(0-inf): 875 ng·h/mL and 1050 ng·h/mL
  AUC(0-t): 869 ng·h/mL and 1030 ng·h/mL
  C0: 655 ng/mL and 704 ng/mL
  MRT inf: 118 min and 107 min
  MRT last: 104 min and 111 min
  Vd: 1.03 L/kg and 0.95 L/kg
  clearance: 9.52 mL/min/kg and 8.12 mL/min/kg
  half-life: 69.6 min and 78 min
[1]
  IC50: 770 nM

## COc1ccc2cncc(NC(=O)[C@H]3CCNc4cc(Cl)c(Cl)cc43)c2c1 (stereo in doubt)
[2]; mouse
  AUC(0-inf): 113 ng·h/mL and 130 ng·h/mL
  AUC(0-t): 113 ng·h/mL and 128 ng·h/mL
  C0: 179 ng/mL and 202 ng/mL
  MRT inf: 28.6 min and 30.8 min
  MRT last: 27.6 min and 28.9 min
  Vd: 2.09 L/kg and 1.97 L/kg
  clearance: 73.4 mL/min/kg and 64 mL/min/kg
  half-life: 16.1 min and 19.4 min
[1]
  IC50: < 50 nM and 82.3 nM and 53.6 nM

## COC(=O)[C@@H]1C[C@@H](NC(=O)C(c2cccnc2)N(C(=O)c2cocn2)c2ccc(C(C)(C)C)cc2)CN1C(=O)OC(C)(C)C (stereo in doubt)
vero
  CC50: > 10000 nM
[1]
  IC50: 6820 nM

## O=C(Nc1cncc2ccncc12)C1CCNc2cc(Cl)c(Cl)cc21 (configuration not stated)
a549
  CC50: > 9990 nM

## N#Cc1cc(Cl)cc2c1NCCC2C(=O)Nc1cncc2ccccc12 (configuration not stated)
a549
  CC50: > 9990 nM
[1]
  IC50: 242 nM

## CC(C)(C)c1ccc(N(C(=O)c2cocn2)C(C(=O)NCC2CCCO2)c2cccnc2)cc1 (configuration not stated)
vero
  CC50: > 10000 nM
[1]
  IC50: 5150 nM

## O=C(Cc1ccc(Cl)c(Cl)c1)Nc1cncc2cnccc12
a549
  CC50: > 9990 nM
[1]
  IC50: 1850 nM

## CC1(C(=O)Nc2cncc3ccc(S(C)(=O)=O)cc23)CNC(=O)c2ccc(Cl)cc21 (configuration not stated)
[2]; rat
  AUC(0-inf): 304 ng·h/mL and 309 ng·h/mL
  AUC(0-t): 292 ng·h/mL and 303 ng·h/mL
  C0: 660 ng/mL and 636 ng/mL
  MRT inf: 38.1 min and 34.1 min
  MRT last: 29.1 min and 35 min
  Vd: 1.08 L/kg and 1.19 L/kg
  clearance: 31.8 mL/min/kg and 32.2 mL/min/kg
  half-life: 26.9 min and 30.5 min
[1]
  IC50: 6620 nM

## C=CC(=O)N(C(=O)[C@@H]1CCOc2ccc(Cl)cc21)c1cncc2ccccc12 (stereo in doubt)
a549
  CC50: > 9990 nM
vero
  CC50: > 9990 nM
